Details of this series: species or system chinchillas. To be noted: in vivo. On the procedure:
To show the distribution of liquid administered through the nose, Evans Blue Dye (0.3%) was administered through a micropipette tip into the nose of mice and chinchillas at various doses, at various levels of sedation or anesthesia, and with the animals in various positions.

1 compound from patent US20020198510A1, “Method for nasal application of a medicinal substance” (priority 2001, published 2002) can be followed below.

`Cc1cc(-c2ccc(/N=N/c3ccc4c(S(=O)(=O)[O-])cc(S(=O)(=O)[O-])c(N)c4c3O)c(C)c2)ccc1/N=N/c1ccc2c(S(=O)(=O)[O-])cc(S(=O)(=O)[O-])c(N)c2c1O.[Na+].[Na+].[Na+].[Na+]` [Dye, Evans Blue Dye]: the “Dye retention in nasal passages and sinuses by alertness” value was “more dye is retained in the nasal passages and sinuses when administered to an alert chinchilla”; the “Dye retention in nasal passages and sinuses by position” value was “more dye is retained in the nasal passages and sinuses in the chinchilla, when the dye is administered in the prone position than when administered in the supine position”.
